{
  "source": "paper PMC10770758",
  "about": "“Protocatechuate hydroxylase is a novel group A flavoprotein monooxygenase with a unique substrate recognition mechanism” (The Journal of Biological Chemistry, 2023)",
  "format_in_all_cases": "binding",
  "key": {"PkPobA": {"biological_target": "T1, PkPobA (Pigmentiphaga kullae, UniProt A0A4Q7NA79)", "T1 construct": "gene EV675_5624; codon-optimised gene in modified pET28a, His-tagged, E. coli BL21 Star (DE3), HisTrap", "T1 sequence (A0A4Q7NA79 1-391)": "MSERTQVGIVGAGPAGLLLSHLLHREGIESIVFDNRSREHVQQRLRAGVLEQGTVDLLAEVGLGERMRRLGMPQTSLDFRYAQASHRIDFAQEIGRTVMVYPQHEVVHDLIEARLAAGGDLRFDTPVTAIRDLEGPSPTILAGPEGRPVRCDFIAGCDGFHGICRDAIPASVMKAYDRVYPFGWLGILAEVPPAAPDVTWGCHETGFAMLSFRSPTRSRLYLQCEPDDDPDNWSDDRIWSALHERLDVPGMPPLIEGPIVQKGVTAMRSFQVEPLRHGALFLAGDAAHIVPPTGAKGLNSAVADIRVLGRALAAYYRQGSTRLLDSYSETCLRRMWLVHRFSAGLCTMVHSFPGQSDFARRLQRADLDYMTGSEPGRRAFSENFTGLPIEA", "test": "HPLC of heat-released flavin; absorption spectrum", "conditions": "prosthetic group"}, "OtPobA": {"biological_target": "T2, OtPobA (Ottowia thiooxydans, UniProt A0ABV2Q8W8)", "T2 construct": "gene ABIE13_002600; codon-optimised gene in modified pET28a, His-tagged, E. coli BL21 Star (DE3), HisTrap", "T2 sequence (A0ABV2Q8W8 1-392)": "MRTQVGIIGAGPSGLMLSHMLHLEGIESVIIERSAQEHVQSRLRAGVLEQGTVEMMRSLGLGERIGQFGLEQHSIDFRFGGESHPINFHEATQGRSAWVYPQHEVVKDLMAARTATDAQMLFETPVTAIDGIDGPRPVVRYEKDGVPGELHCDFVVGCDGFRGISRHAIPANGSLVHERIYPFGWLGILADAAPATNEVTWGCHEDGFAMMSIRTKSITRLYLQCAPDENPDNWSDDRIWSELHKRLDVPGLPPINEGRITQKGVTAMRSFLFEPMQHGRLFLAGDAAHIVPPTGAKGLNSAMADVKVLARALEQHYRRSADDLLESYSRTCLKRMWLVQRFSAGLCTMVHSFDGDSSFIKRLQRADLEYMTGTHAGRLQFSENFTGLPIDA", "test": "HPLC of heat-released flavin; absorption spectrum", "conditions": "prosthetic group"}, "XaPobA": {"biological_target": "T3, XaPobA (Xylophilus ampelinus, UniProt A0AAJ6N6I2)", "T3 construct": "gene praI; codon-optimised gene in modified pET28a, 6xHis tag, E. coli BL21 Star (DE3), HisTrap; homodimer in crystal", "T3 sequence (A0AAJ6N6I2 1-391)": "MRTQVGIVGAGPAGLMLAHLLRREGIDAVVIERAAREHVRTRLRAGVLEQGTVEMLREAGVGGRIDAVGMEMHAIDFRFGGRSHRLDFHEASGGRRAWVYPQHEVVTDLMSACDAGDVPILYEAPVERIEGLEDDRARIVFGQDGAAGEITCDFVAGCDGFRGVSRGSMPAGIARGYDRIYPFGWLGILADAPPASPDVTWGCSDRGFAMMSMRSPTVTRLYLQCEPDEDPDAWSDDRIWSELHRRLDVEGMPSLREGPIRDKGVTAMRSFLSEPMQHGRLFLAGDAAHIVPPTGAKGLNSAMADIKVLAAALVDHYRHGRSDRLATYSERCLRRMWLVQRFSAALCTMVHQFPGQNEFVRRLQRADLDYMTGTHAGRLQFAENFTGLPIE", "test": "X-ray crystal structure; HPLC of heat-released flavin", "conditions": "oxidized form, prosthetic group"}},
  "data": [
    {"smiles": "Cc1cc2nc3c(=O)[nH]c(=O)nc-3n(C[C@H](O)[C@H](O)[C@H](O)COP(=O)(O)OP(=O)(O)OC[C@H]3O[C@@H](n4cnc5c(N)ncnc54)[C@H](O)[C@@H]3O)c2cc1C", "note": "[FAD, flavin adenine dinucleotide]", "values": [
      {"measurement": "HPLC of heat-released flavin; absorption spectrum", "setting": "PkPobA", "result": "indicating that XaPobA, OtPobA, and PkPobA use FAD as a prosthetic group"},
      {"measurement": "HPLC of heat-released flavin; absorption spectrum", "setting": "OtPobA", "result": "indicating that XaPobA, OtPobA, and PkPobA use FAD as a prosthetic group"},
      {"measurement": "X-ray crystal structure; HPLC of heat-released flavin", "setting": "XaPobA", "result": "homodimer, with each unit binding an oxidized form of FAD in its active site"}
    ]}
  ]
}
